Here are results for three molecules from article doi:10.1101/2024.02.28.582612v1 (biorxiv, 2024).

The target in the experiment is T1, Mtb cytochrome bd (Mycobacterium tuberculosis, UniProt L7N662+O06139).
T1 sequence (L7N662 1-485): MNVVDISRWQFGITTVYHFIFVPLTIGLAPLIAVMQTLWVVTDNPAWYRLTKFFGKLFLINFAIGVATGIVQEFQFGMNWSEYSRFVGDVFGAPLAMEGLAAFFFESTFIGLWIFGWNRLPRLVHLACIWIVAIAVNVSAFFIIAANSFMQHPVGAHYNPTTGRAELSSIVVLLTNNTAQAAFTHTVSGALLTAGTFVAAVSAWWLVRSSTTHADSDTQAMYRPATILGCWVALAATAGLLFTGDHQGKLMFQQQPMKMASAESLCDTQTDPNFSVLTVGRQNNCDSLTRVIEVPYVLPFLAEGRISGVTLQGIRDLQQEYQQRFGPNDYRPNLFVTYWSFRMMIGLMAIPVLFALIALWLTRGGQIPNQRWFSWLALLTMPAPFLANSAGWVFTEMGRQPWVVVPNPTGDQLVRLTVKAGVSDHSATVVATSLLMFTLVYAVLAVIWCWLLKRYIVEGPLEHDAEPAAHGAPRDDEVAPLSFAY
T1 sequence (O06139 1-346): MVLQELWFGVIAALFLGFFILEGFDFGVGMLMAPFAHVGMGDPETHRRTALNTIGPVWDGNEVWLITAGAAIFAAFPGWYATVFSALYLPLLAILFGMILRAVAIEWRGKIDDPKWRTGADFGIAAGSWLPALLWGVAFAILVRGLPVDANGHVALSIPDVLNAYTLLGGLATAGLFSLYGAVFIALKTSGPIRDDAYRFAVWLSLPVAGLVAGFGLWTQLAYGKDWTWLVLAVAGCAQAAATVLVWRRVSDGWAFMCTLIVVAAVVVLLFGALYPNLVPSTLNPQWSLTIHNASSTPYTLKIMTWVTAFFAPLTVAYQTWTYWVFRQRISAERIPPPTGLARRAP
The experiment is classed as biochemical. The conditions noted are these: read-out: % remaining OCR at 10 μM.
As to `CCOc1ccc(-c2nc(CSc3nc4ccccc4c(=O)n3CCCN3CCCC3=O)c(C)o2)cc1` [F3382-2259], the remaining activity at 10 µM was 30.4%.
`C=CCSc1ncc(-c2ccccc2)n1-c1ccc(C)cc1` [F2964-1180]: the remaining activity at 10 µM worked out at 50.6%.
With `CC(C)(c1cc(Br)c(OCC(O)CN2CCN(Cc3ccccc3)CC2)c(Br)c1)c1cc(Br)c(OCC(O)CN2CCN(Cc3ccccc3)CC2)c(Br)c1` (stereo not drawn) [F0777-1198] the figure was 51%.
